Test [1] has as its target T1, Corticotropin-releasing factor receptor 1 (Mus musculus) (UniProt P35347).
T1 sequence (whole entry): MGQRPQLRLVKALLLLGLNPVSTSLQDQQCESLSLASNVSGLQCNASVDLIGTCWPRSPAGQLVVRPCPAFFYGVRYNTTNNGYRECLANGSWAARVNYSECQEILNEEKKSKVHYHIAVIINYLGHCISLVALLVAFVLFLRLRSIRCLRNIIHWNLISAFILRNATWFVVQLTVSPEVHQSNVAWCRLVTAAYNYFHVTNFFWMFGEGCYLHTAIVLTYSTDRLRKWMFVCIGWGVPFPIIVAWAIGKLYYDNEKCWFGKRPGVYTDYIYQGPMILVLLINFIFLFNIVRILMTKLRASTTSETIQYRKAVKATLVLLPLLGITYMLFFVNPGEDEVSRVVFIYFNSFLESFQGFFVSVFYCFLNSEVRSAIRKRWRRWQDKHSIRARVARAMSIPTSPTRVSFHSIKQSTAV
The test can be described thus: In vitro agonistic activity against mouse corticotropin releasing factor 1 receptor. Format: functional.

For test [2], the target named is Corticotropin-releasing factor receptor 2 (Mus musculus) (UniProt Q60748). The test can be described thus: In vitro agonistic activity against mouse corticotropin releasing factor 2 receptor. It is filed as functional.
Corticotropin-releasing factor receptor 2 (Mus musculus), sequence (Q60748 whole entry): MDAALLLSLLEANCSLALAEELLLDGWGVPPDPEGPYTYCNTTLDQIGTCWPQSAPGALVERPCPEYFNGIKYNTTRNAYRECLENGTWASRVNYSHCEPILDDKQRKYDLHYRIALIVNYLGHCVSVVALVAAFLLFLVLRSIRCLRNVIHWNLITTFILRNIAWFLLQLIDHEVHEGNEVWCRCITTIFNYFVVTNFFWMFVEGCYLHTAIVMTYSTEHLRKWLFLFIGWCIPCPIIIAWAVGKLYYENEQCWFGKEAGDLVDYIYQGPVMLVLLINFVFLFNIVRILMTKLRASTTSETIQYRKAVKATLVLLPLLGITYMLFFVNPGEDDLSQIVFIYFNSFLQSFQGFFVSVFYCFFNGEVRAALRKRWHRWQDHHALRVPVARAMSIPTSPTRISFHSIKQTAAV
Another test is filed under the species Mus musculus. As to the kind of experiment: Selectivity ratio of EC50s for mouse corticotropin releasing factor receptors 1 and 2.

Structures are written as SMILES. Square brackets hold non-standard residues; d marks the D form. Peptide text beside a SMILES is read from it. 1Nal = N[C@@H](Cc1cccc2ccccc12)C(=O)O; pGlu = O=C1CC[C@@H](C(=O)O)N1

Turning to `CC[C@H](C)[C@H](NC(=O)[C@@H](NC(=O)[C@H](CC(=O)O)NC(=O)[C@H](CC(C)C)NC(=O)[C@H](CC(C)C)NC(=O)[C@H](CC(C)C)NC(=O)[C@H](CCCN=C(N)N)NC(=O)[C@H](CC(N)=O)NC(=O)[C@H](CC(N)=O)NC(=O)[C@H](C)NC(=O)[C@H](C)NC(=O)[C@H](CCC(N)=O)NC(=O)[C@H](CCC(N)=O)NC(=O)[C@H](CCCCN)NC(=O)[C@H](CCC(=O)O)NC(=O)[C@H](CCCCN)NC(=O)[C@H](CCC(=O)O)NC(=O)[C@H](CCC(N)=O)NC(=O)[C@H](CCCCN)NC(=O)[C@H](CCC(=O)O)NC(=O)[C@@H](NC(=O)[C@H](CCC(=O)O)NC(=O)[C@@H](NC(=O)[C@H](CCSC)NC(=O)[C@H](CCCCN)NC(=O)[C@H](CCCN=C(N)N)NC(=O)[C@H](CC(C)C)NC(=O)[C@H](CC(C)C)NC(=O)[C@@H](NC(=O)[C@H](Cc1ccccc1)NC(=O)[C@@H]1CCCN1C(=O)[C@H](CC(C)C)NC(=O)[C@H](CC(=O)O)NC(=O)[C@@H](NC(=O)[C@H](CO)NC(=O)[C@@H](NC(=O)[C@@H]1CCCN1C(=O)[C@@H]1CCCN1C(=O)CNC(=O)[C@@H]1CCC(=O)N1)[C@@H](C)CC)[C@@H](C)CC)C(C)C)[C@@H](C)CC)[C@@H](C)CC)[C@@H](C)O)C(=O)O`, the Emax (commonly the maximal effect, on the per cent scale that the assay sets) was 81% in test [1] and 91% in test [2]. In addition, the Selectivity in the test listed under Mus musculus came to 14.

As for `CC[C@H](C)[C@H](NC(=O)[C@@H](NC(=O)[C@H](CC(=O)O)NC(=O)[C@H](CC(C)C)NC(=O)[C@H](CC(C)C)NC(=O)[C@H](CC(C)C)NC(=O)[C@H](CCCN=C(N)N)NC(=O)[C@H](CC(N)=O)NC(=O)[C@H](CC(N)=O)NC(=O)[C@H](C)NC(=O)[C@H](C)NC(=O)[C@H](CCC(N)=O)NC(=O)[C@H](CCC(N)=O)NC(=O)[C@H](CCCCN)NC(=O)[C@H](CCC(=O)O)NC(=O)[C@H](CCCCN)NC(=O)[C@H](CCC(=O)O)NC(=O)[C@H](CCC(N)=O)NC(=O)[C@H](CCCCN)NC(=O)[C@H](CCC(=O)O)NC(=O)[C@@H](NC(=O)[C@H](CCC(=O)O)NC(=O)[C@@H](NC(=O)[C@H](CCSC)NC(=O)[C@H](CCCCN)NC(=O)[C@H](CCCN=C(N)N)NC(=O)[C@H](CC(C)C)NC(=O)[C@H](CC(C)C)NC(=O)[C@H](CCC(N)=O)NC(=O)[C@H](CCC(N)=O)NC(=O)[C@@H]1CCCN1C(=O)[C@H](CC(C)C)NC(=O)[C@H](CC(=O)O)NC(=O)[C@@H](NC(=O)[C@H](CO)NC(=O)[C@@H](NC(=O)[C@@H]1CCCN1C(=O)[C@@H]1CCCN1C(=O)CNC(=O)[C@@H]1CCC(=O)N1)[C@@H](C)CC)[C@@H](C)CC)[C@@H](C)CC)[C@@H](C)CC)[C@@H](C)O)C(=O)O`, the Emax is 50% in test [1] and 100% in test [2]. In the test listed under Mus musculus, the Selectivity was 33.

As for `CC[C@H](C)[C@H](NC(=O)[C@@H](NC(=O)[C@H](CC(=O)O)NC(=O)[C@H](CC(C)C)NC(=O)[C@H](CC(C)C)NC(=O)[C@H](CC(C)C)NC(=O)[C@H](CCCN=C(N)N)NC(=O)[C@H](CC(N)=O)NC(=O)[C@H](CC(N)=O)NC(=O)[C@H](C)NC(=O)[C@H](C)NC(=O)[C@H](CCC(N)=O)NC(=O)[C@H](CCC(N)=O)NC(=O)[C@H](CCCCN)NC(=O)[C@H](CCC(=O)O)NC(=O)[C@H](CCCCN)NC(=O)[C@H](CCC(=O)O)NC(=O)[C@H](CCC(N)=O)NC(=O)[C@H](CCCCN)NC(=O)[C@H](CCC(=O)O)NC(=O)[C@@H](NC(=O)[C@H](CCC(=O)O)NC(=O)[C@@H](NC(=O)[C@H](CCSC)NC(=O)[C@H](CCCCN)NC(=O)[C@H](CCCN=C(N)N)NC(=O)[C@H](CC(C)C)NC(=O)[C@H](CC(C)C)NC(=O)[C@@H](NC(=O)[C@H](CC(C)C)NC(=O)[C@@H]1CCCN1C(=O)[C@H](CC(C)C)NC(=O)[C@H](CC(=O)O)NC(=O)[C@@H](NC(=O)[C@H](CO)NC(=O)[C@@H](NC(=O)[C@@H]1CCCN1C(=O)[C@@H]1CCCN1C(=O)CNC(=O)[C@@H]1CCC(=O)N1)[C@@H](C)CC)[C@@H](C)CC)C(C)C)[C@@H](C)CC)[C@@H](C)CC)[C@@H](C)O)C(=O)O`, the Emax in test [1] turned out to be 95%; in test [2], 94%. Besides, the Selectivity in the test filed under Mus musculus worked out at 48.

Turning to `CC[C@H](C)[C@H](NC(=O)[C@@H](NC(=O)[C@H](CC(=O)O)NC(=O)[C@H](CC(C)C)NC(=O)[C@H](CC(C)C)NC(=O)[C@H](CC(C)C)NC(=O)[C@H](CCCN=C(N)N)NC(=O)[C@H](CC(N)=O)NC(=O)[C@H](CC(N)=O)NC(=O)[C@H](C)NC(=O)[C@H](C)NC(=O)[C@H](CCC(N)=O)NC(=O)[C@H](CCC(N)=O)NC(=O)[C@H](CCCCN)NC(=O)[C@H](CCC(=O)O)NC(=O)[C@H](CCCCN)NC(=O)[C@H](CCC(=O)O)NC(=O)[C@H](CCC(N)=O)NC(=O)[C@H](CCCCN)NC(=O)[C@H](CCC(=O)O)NC(=O)[C@@H](NC(=O)[C@H](CCC(=O)O)NC(=O)[C@@H](NC(=O)[C@H](CCSC)NC(=O)[C@H](CCCCN)NC(=O)[C@H](CCCN=C(N)N)NC(=O)[C@H](CC(C)C)NC(=O)[C@H](CC(C)C)NC(=O)[C@H](CCC(=O)O)NC(=O)[C@H](CC(C)C)NC(=O)[C@@H]1CCCN1C(=O)[C@H](CC(C)C)NC(=O)[C@H](CC(=O)O)NC(=O)[C@@H](NC(=O)[C@H](CO)NC(=O)[C@@H](NC(=O)[C@@H]1CCCN1C(=O)[C@@H]1CCCN1C(=O)CNC(=O)[C@@H]1CCC(=O)N1)[C@@H](C)CC)[C@@H](C)CC)[C@@H](C)CC)[C@@H](C)CC)[C@@H](C)O)C(=O)O`, the Emax in test [1] turned out to be 99%; in test [2] it was 95%. Moreover, the Selectivity in the test filed under Mus musculus amounted to 9.

`CC[C@H](C)[C@H](NC(=O)[C@@H](NC(=O)[C@H](CC(=O)O)NC(=O)[C@H](CC(C)C)NC(=O)[C@H](CC(C)C)NC(=O)[C@H](CC(C)C)NC(=O)[C@H](CCCN=C(N)N)NC(=O)[C@H](CC(N)=O)NC(=O)[C@H](CC(N)=O)NC(=O)[C@H](C)NC(=O)[C@H](C)NC(=O)[C@H](CCC(N)=O)NC(=O)[C@H](CCC(N)=O)NC(=O)[C@H](CCCCN)NC(=O)[C@H](CCC(=O)O)NC(=O)[C@H](CCCCN)NC(=O)[C@H](CCC(=O)O)NC(=O)[C@H](CCC(N)=O)NC(=O)[C@H](CCCCN)NC(=O)[C@H](CCC(=O)O)NC(=O)[C@@H](NC(=O)[C@H](CCC(=O)O)NC(=O)[C@@H](NC(=O)[C@H](CCSC)NC(=O)[C@H](CCCCN)NC(=O)[C@H](CCCN=C(N)N)NC(=O)[C@H](CC(C)C)NC(=O)[C@H](CC(C)C)NC(=O)CNC(=O)[C@H](CC(C)C)NC(=O)[C@@H]1CCCN1C(=O)[C@H](CC(C)C)NC(=O)[C@H](CC(=O)O)NC(=O)[C@@H](NC(=O)[C@H](CO)NC(=O)[C@@H](NC(=O)[C@@H]1CCCN1C(=O)[C@@H]1CCCN1C(=O)CNC(=O)[C@@H]1CCC(=O)N1)[C@@H](C)CC)[C@@H](C)CC)[C@@H](C)CC)[C@@H](C)CC)[C@@H](C)O)C(=O)O` ([pGlu]GPPISIDLPLGLLRKMIEIEKQEKEKQQAANNRLLLDTI-OH): the Emax was determined as 99% in test [1] and 82% in test [2]. Moreover, in the test filed under Mus musculus, the Selectivity is 14.

For the molecule `CC[C@H](C)[C@H](NC(=O)[C@@H](NC(=O)[C@H](CC(=O)O)NC(=O)[C@H](CC(C)C)NC(=O)[C@H](CC(C)C)NC(=O)[C@H](CC(C)C)NC(=O)[C@H](CCCN=C(N)N)NC(=O)[C@H](CC(N)=O)NC(=O)[C@H](CC(N)=O)NC(=O)[C@H](C)NC(=O)[C@H](C)NC(=O)[C@H](CCC(N)=O)NC(=O)[C@H](CCC(N)=O)NC(=O)[C@H](CCCCN)NC(=O)[C@H](CCC(=O)O)NC(=O)[C@H](CCCCN)NC(=O)[C@H](CCC(=O)O)NC(=O)[C@H](CCC(N)=O)NC(=O)[C@H](CCCCN)NC(=O)[C@H](CCC(=O)O)NC(=O)[C@@H](NC(=O)[C@H](CCC(=O)O)NC(=O)[C@@H](NC(=O)[C@H](CCSC)NC(=O)[C@H](CCCCN)NC(=O)[C@H](CCCN=C(N)N)NC(=O)[C@H](CC(C)C)NC(=O)[C@H](CC(C)C)NC(=O)[C@H](Cc1ccc(O)cc1)NC(=O)[C@H](CCC(N)=O)NC(=O)[C@@H]1CCCN1C(=O)[C@H](CC(C)C)NC(=O)[C@H](CC(=O)O)NC(=O)[C@@H](NC(=O)[C@H](CO)NC(=O)[C@@H](NC(=O)[C@@H]1CCCN1C(=O)[C@@H]1CCCN1C(=O)CNC(=O)[C@@H]1CCC(=O)N1)[C@@H](C)CC)[C@@H](C)CC)[C@@H](C)CC)[C@@H](C)CC)[C@@H](C)O)C(=O)O`, the figures for the Emax in test [1] and in test [2] were 100% and 96%, respectively. Besides, the Selectivity in the test filed under Mus musculus turned out to be 30.

For the molecule `CC[C@H](C)[C@H](NC(=O)[C@@H](NC(=O)[C@H](CC(=O)O)NC(=O)[C@H](CC(C)C)NC(=O)[C@H](CC(C)C)NC(=O)[C@H](CC(C)C)NC(=O)[C@H](CCCN=C(N)N)NC(=O)[C@H](CC(N)=O)NC(=O)[C@H](CC(N)=O)NC(=O)[C@H](C)NC(=O)[C@H](C)NC(=O)[C@H](CCC(N)=O)NC(=O)[C@H](CCC(N)=O)NC(=O)[C@H](CCCCN)NC(=O)[C@H](CCC(=O)O)NC(=O)[C@H](CCCCN)NC(=O)[C@H](CCC(=O)O)NC(=O)[C@H](CCC(N)=O)NC(=O)[C@H](CCCCN)NC(=O)[C@H](CCC(=O)O)NC(=O)[C@@H](NC(=O)[C@H](CCC(=O)O)NC(=O)[C@@H](NC(=O)[C@H](CCSC)NC(=O)[C@H](CCCCN)NC(=O)[C@H](CCCN=C(N)N)NC(=O)[C@H](CC(C)C)NC(=O)[C@H](CC(C)C)NC(=O)[C@H](Cc1cccc2ccccc12)NC(=O)[C@H](CCC(N)=O)NC(=O)[C@@H]1CCCN1C(=O)[C@H](CC(C)C)NC(=O)[C@H](CC(=O)O)NC(=O)[C@@H](NC(=O)[C@H](CO)NC(=O)[C@@H](NC(=O)[C@@H]1CCCN1C(=O)[C@@H]1CCCN1C(=O)CNC(=O)[C@@H]1CCC(=O)N1)[C@@H](C)CC)[C@@H](C)CC)[C@@H](C)CC)[C@@H](C)CC)[C@@H](C)O)C(=O)O` ([pGlu]GPPISIDLPQ[1Nal]LLRKMIEIEKQEKEKQQAANNRLLLDTI-OH), the Emax in test [1] and in test [2] was 100% throughout. Moreover, the Selectivity in the test filed under Mus musculus is 26.

The values are drawn from ChEMBL document CHEMBL1139487, “Discovery of corticotropin releasing factor 2 receptor selective sauvagine analogues for treatment of skeletal muscle atrophy” (J Med Chem, 2005).
